{
  "source": "patent US20220008402A1",
  "about": "“INCREASED E-CADHERIN EXPRESSION OR ACTIVITY FOR THE TREATMENT OF INFLAMMATORY DISEASES” (The Cleveland Clinic Foundation, priority 2020, published 2022)",
  "assay_type_in_all_cases": "cell-based, human",
  "key": {"T84 cell monolayers [1]": {"test_system": "T84 cell monolayers", "assay": "Immunofluorescence labeling of adherens and tight junctions (E-cadherin, ZO-1)", "experimental": "FIG. 5: E-cadherin-enhancing drugs prevent cytokine-induced disruption of epithelial adherens junctions. Confluent T84 cell monolayers were pretreated with either vehicle, or ECU (10 μM) for 24 hours. Afterwards, cells were exposed to a combination of TNFα (10 ng/ml) and IFNγ (50 ng/ml) with and without ECU for 48 h. Cells were fixed and structure of adherens was determined by immunolabeling of E-cadherin. Arrows point on disruption of normal E-cadherin labeling in cytokine-exposed, vehicle-treated cells.\nFIG. 6: E-cadherin-enhancing drugs prevent cytokine-induced disruption of epithelial tight junctions. Confluent T84 cell monolayers were pretreated with either vehicle, or ECU (10 μM) for 24 hours. Afterwards, cells were exposed to a combination of TNFα (10 ng/ml) and IFNγ (50 ng/ml) with or without ECU for 48 h. Cells were fixed and structure of tight junctions was determined by ZO-1 immunolabeling. Arrows point on disruption of normal ZO-1 labeling in cytokine-exposed, vehicle-treated cells.\nIn order to visualize structure of epithelial junctions, cultured colonic epithelial cell monolayers were fixed and permeabilized with 100% methanol at −20° C. Fixed samples were blocked for 60 min in HBSS containing 1% bovine serum albumin, followed by a 60-min incubation with primary antibodies against E-cadherin (BD Bioscience) and ZO-1 (Thermo-Fisher). Samples were then washed and incubated with Alexa-Fluor-488-conjugated donkey anti-rabbit and Alexa-Fluor-555—conjugated donkey anti-mouse secondary antibodies for 60 min, rinsed with blocking buffer, and mounted on slides with ProLong Antifade mounting reagent (Thermo-Fisher). Immunolabeled cell monolayers were imaged using a Leica SP8 confocal microscope (Wentzler, Germany). The Alexa Fluor 488 and 555 signals were acquired sequentially in frame-interlace mode to eliminate cross talk between channels. Images were processed using Adobe Photoshop. The images shown are representative of at least three experiments, with multiple images taken per slide. […]"}, "T84 cell monolayers [2]": {"test_system": "T84 cell monolayers", "assay": "Wound healing assay", "conditions": "10 μM pretreatment 24 h, migration 24-48 hours", "experimental": "FIG. 8: E-cadherin-enhancing drug promote collective migration of intestinal epithelial cells. Confluent T84 cell monolayers were pretreated with either vehicle, ECU (10 μM) or ML327 (10 μM) for 24 hours. Afterwards, cell monolayers were wounded and allowed to migrate into wound area in the presence of the drugs. Cell monolayers were photographed and wound closure was calculated at the indicated times. Data is presented as mean ±SE (n=3); **P<0.05, ***P<0.01.\nConfluent epithelial cell monolayers were mechanically wounded by making a thin scratch wound with a 200 μl pipette tip. The bottom of the well was marked to define the position of the wound and the monolayers were supplied with fresh cell culture medium. The images of a cell-free area at the marked region were acquired at the indicated times after wounding using an inverted bright field microscope equipped with a camera. The percentage of wound closure was calculated using an Image J software (NIH, Bethesda, Md.).\nFinally, the effects of E-cadherin-enhancing drugs on epithelial restitution (wound healing) were examined. This is an important question given the fact that epithelial wounds are frequently formed in inflamed intestinal mucosa of IBD patients and wound healing is necessary to restore the integrity of the gut barrier and to achieve remission of chronic inflammatory diseases. […]"}, "T84 cell monolayers [3]": {"test_system": "T84 cell monolayers", "assay": "Immunoblotting of signaling molecules after multiple wounding", "conditions": "10 μM pretreatment 24 h; lysates 12 and 24 h post-wounding", "experimental": "Confluent T84 cell monolayers were pretreated with either vehicle, ECU (10 μM), or ML327 (10 μM), for 24 h, and were subjected to multiple wounding. Total cell lysates were collected at 12 and 24 h post-wounding, and the expression of different signaling molecules was determined by immunoblotting. Representative immunoblots (A) and densitometric quantification of protein band intensities from three independent experiments (B) are shown. Data are presented as a mean ±SE (n=3); *p<0.05; **p<0.01.\nTo prepare total cell lysates, epithelial cell monolayers were scraped and homogenized using a Dounce homogenizer in RIPA buffer (20 mM Tris, 50 mM NaCl, 2 mM EDTA, 2 mM EGTA, 1% sodium deoxycholate, 1% Triton X-100 (TX-100), and 0.1% SDS, pH 7.4) containing protease inhibitor cocktail and phosphatase inhibitor cocktails 2 and 3 (Sigma-Aldrich). The obtained total cell lysates were cleared by centrifugation (20 min at 14,000×g), diluted with 2×SDS sample loading buffer and boiled. SDS-polyacrylamide gel electrophoresis was conducted using a standard protocol with equal amounts of total protein (10 or 20 μg) loaded per each lane. The separated proteins were transferred to nitrocellulose membranes and the membranes were blocked with 5% non-fat milk. […]"}, "[4]": {"conditions": "10 μM pretreatment 24 h, then TNFα 10 ng/ml + IFNγ 50 ng/ml, 48 h"}},
  "note": "“Also recorded” adds a separate entry of the source.",
  "data": [
    {"smiles": "O=C(NCCCCc1ccncc1)c1cc(-c2ccco2)on1", "note": "[ECU]", "values": [
      {"measurement": "Cytokine-induced adherens junction (AJ) disassembly, E-cadherin immunolabeling", "setting": "T84 cell monolayers [1]; [4]", "value": "dramatic suppression of cytokine-induced disruption of adherens junctions; also recorded: completely prevented cytokine-induced junctional disassembly"},
      {"measurement": "Cytokine-induced tight junction (TJ) disassembly, ZO-1 immunolabeling", "setting": "T84 cell monolayers [1]; [4]", "value": "inhibition of cytokine-induced tight junction disruption; also recorded: completely prevented cytokine-induced junctional disassembly"},
      {"measurement": "Normal AJ and TJ structure", "setting": "T84 cell monolayers [1]; 10 μM, without cytokines", "value": "little effect"},
      {"measurement": "Cell migration during wound healing (wound closure)", "setting": "T84 cell monolayers [2]", "value": "significantly increased migration"},
      {"measurement": "Expression of signaling molecules (pro-migratory signaling)", "setting": "T84 cell monolayers [3]", "value": "activation of pro-migratory signaling events"}
    ]}
  ]
}
